Laboratory results reported in US8491897B2, “Treatment of neuropathic pain using anti-thrombospondin antibodies” (The Board of Trustees of the Leland Stanford Junior …, priority 2007, dated 2013).
“Also recorded” adds a separate entry of the source.

Assays:
RGCs [1] = experiment: RGC synapse assay: synaptogenic activity (co-localized synaptotagmin/PSD-95 puncta); format: cell-based, rat; conditions: for number of co-localized synaptic puncta/cell (synapse number): purified TSPs, 8 nM each, vs RGCs alone (Control)
Procedure: (§1) RGCs were purified by sequential immunopanning to greater than 99.5% purity from P5 Sprague-Dawley rats (Simonsen Labs, Gilroy, Calif.), as previously described (Barres et. al. (1988) Neuron 9, 791). Approximately 30,000 RGCs were cultured per well in 24-well plates (Falcon) on glass (Assistant) or Aclar 22C (Allied Signal) coverslips coated with poly-D-lysine (10 μg/ml) followed by laminin (2 μg/ml). RGCs were cultured in 600 μl of serum-free medium, modified from Bottenstein and Sato (1979), containing Neurobasal (Gibco), bovine serum albumin, selenium, putrescine, triiodo-thyronine, transferrin, progesterone, pyruvate (1 mM), glutamine (2 mM), CNTF (10 ng/ml), BDNF (50 ng/ml), insulin (5 μg/ml), and forskolin (10 μM). Recombinant human BDNF and CNTF were generously provided by Regeneron Pharmaceuticals.
(§2) Purified human platelet TSP1 was from either Sigma or Haematologic Technologies with similar results. Recombinant TSP2 was purified from serum-free medium conditioned by baculovirus-infected insect cells expressing mouse TSP2. Since purified TSP1 is readily available, we used this as the source of TSP in our experiments unless otherwise stated TSPs were used at a concentration of 5 μg/ml unless otherwise specified. RCGs were cultured for 4 days to allow robust process outgrowth and then cultured with TSPs for an additional 6 days. All other reagents were obtained from Sigma.
For preparation of ACM, confluent cultures of astrocytes in 10 cm dishes were washed 3× in PBS and fed with 10 mls RGC medium (without CNTF, BDNF or forskolin). ACM was harvested after 4-6 days of conditioning, filtered through a 0.2 μm syringe filter and concentrated 10× through a 5 KD molecular weight cut-off centrifuge concentrator (Millipore), unless otherwise indicated. ACM was used at a final concentration of 5× unless otherwise indicated. […]
For synapse quantification, cultures were fixed for 7 min in 4% paraformaldehyde (PFA), washed 3× in phosphate buffered saline (PBS) and blocked in 100 μL of blocking buffer (50% Antibody Buffer (0.5% bovine serum albumin, 0.5% Triton X-100, 30 mM NaPO4, 750 mM NaCl, 5% normal goat serum, and 0.4% NaN3, pH 7.4), 50% goat serum (NGS), 0.1% Triton-X) for 30 min. […]
(§3) Mounted coverslips were imaged using Nikon Diaphot and Eclipse epifluorescence microscopes (Nikon). Healthy cells that were at least 2 cell diameters from their nearest neighbor were identified and selected at random by eye using DAPI fluorescence. 8-bit digital images of the fluorescence emission at both 594 nm and 488 nm were recorded for each selected cell using a cooled monochrome CCD camera and SPOT image capture software (Diagnostic Instruments, Inc). […]

naive rats = experiment: TSP4-induced behavioral hypersensitivity in naive rats (paw withdrawal threshold, von Frey); format: in vivo, rat
RGCs [2] = experiment: Inhibition of TSP-, astrocyte/ACM- or Hevin-induced synapse formation in RGC cultures; format: cell-based, rat
Procedure: as §1, §2
For preparation of ACM, confluent cultures of astrocytes in 10 cm dishes were washed 3× in PBS and fed with 10 mls RGC medium (without CNTF, BDNF or forskolin). ACM was harvested after 4-6 days of conditioning, filtered through a 0.2 μm syringe filter and concentrated 10× through a 5 KD molecular weight cut-off centrifuge concentrator (Millipore), unless otherwise indicated. ACM was used at a final concentration of 5× unless otherwise indicated. RCGs were cultured for 4 days to allow robust process outgrowth and then cultured with ACM or an astrocyte-feeding layer for an additional 6 days.
For synapse quantification, cultures were fixed for 7 min in 4% paraformaldehyde (PFA), washed 3× in phosphate buffered saline (PBS) and blocked in 100 μL of blocking buffer (50% Antibody Buffer (0.5% bovine serum albumin, 0.5% Triton X-100, 30 mM NaPO4, 750 mM NaCl, 5% normal goat serum, and 0.4% NaN3, pH 7.4), 50% goat serum (NGS), 0.1% Triton-X) for 30 min. After blocking, cover slips were washed 3× in PBS and 100 μL of primary antibody solution was added to each cover slip, consisting of rabbit anti-synaptotagmin (cytosolic domain, Synaptic Systems) and mouse anti-PSD-95 (6G6-1C9 clone, Affinity Bio Reagents) diluted 1:500 in antibody buffer. Coverslips were incubated overnight at 4° C., washed 3× in PBS, and incubated with 100 μL of secondary antibody solution containing Alexa-594 conjugated goat anti-rabbit and Alexa-488 conjugated goat anti-mouse (Molecular Probes) diluted 1:1000 in antibody buffer. Following incubation for 2 h at room temperature, coverslips were washed five times in PBS and mounted in Vectashield mounting medium with DAPI (Vector Laboratories Inc) on glass slides (VWR Scientific). For presynaptic activity assay, rabbit synaptotagmin antiserum was generated by immunization with a peptide corresponding to the N-terminal luminal portion of synaptotagmin. This serum was added at 1:500 to live cultures and incubated for 6 hours. Cells were then washed 3× in DPSB, fixed and stained as above, except for the omission of synaptotagmin antibody from the primary antibody solution.
as §3

TSP4 = target: T1, TSP4 (Rattus norvegicus, UniProt P49744); experiment: Reversal of established tactile allodynia in L5/6 spinal nerve ligated rats (von Frey PWT); format: in vivo; conditions: 50 ug/day intrathecal for four days; for reversal of established allodynia in the injury (ipsilateral) side: 5 weeks post injury
T1 construct: elevated TSP4 protein may play a critical role in peripheral nerve injury-induced allodynia at the spinal level; from tissue; host or cells: spinal cord (L5/6) of live male Sprague Dawley rats, intrathecal injection
T1 sequence (P49744 43-980): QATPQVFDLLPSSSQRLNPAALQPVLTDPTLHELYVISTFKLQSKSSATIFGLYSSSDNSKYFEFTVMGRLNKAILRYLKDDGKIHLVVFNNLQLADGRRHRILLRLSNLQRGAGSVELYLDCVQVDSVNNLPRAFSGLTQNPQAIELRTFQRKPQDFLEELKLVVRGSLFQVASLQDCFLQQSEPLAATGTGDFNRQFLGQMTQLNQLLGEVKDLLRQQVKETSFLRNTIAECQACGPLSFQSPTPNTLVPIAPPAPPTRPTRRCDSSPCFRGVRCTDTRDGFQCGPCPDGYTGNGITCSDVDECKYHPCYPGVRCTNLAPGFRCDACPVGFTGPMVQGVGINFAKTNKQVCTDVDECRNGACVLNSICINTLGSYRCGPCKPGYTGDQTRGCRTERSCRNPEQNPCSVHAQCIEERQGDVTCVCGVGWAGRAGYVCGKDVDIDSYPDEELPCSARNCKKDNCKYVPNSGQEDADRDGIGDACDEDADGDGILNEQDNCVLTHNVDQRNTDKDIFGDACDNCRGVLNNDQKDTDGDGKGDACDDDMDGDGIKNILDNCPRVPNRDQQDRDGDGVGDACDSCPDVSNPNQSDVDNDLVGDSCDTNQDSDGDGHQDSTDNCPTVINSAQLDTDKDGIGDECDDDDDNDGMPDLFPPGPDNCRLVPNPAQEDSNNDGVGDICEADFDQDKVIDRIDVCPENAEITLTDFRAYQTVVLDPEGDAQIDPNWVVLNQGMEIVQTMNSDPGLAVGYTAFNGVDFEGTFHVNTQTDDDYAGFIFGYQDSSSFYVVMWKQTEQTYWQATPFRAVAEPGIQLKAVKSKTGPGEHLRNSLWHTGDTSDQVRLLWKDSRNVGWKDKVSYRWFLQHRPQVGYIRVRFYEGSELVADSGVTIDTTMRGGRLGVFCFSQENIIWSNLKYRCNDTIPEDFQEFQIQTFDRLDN
Procedure: To determine if TSP4 plays a role in mediating neuropathic pain processing at the spinal cord level, the effect of intrathecal TSP4 antisera in reversing established allodynia in spinal nerve ligated rats was examined. Intrathecal bolus injection of active TSP4 antibody (chicken polyclonal, from Dr. Frank Zaucke at University of Cologne, Cologne, Germany) was administered into left L5/6 spinal nerve ligated rats 2-weeks post injury, when the injured rats had fully developed allodynia. […] Neither the antisense nor mismatch oligodeoxynucleotides altered the behavioral thresholds at the non-injury side. […] Male Harlan Sprague Dawley rats (100-150 g, Harlan Industries Indianapolis, Ind.) were housed in separate cages, exposed to a 12/12 h day/night cycle and allowed free access to food and water. Peripheral nerve injury was induced in isoflurane-anesthetized animals with tight ligation of the left L5/6 spinal nerves between DRG and the beginning of the spinal nerve (Kim and Chung, Pain 50 50:355-363, 1992). To access tactile allodynia, paw withdrawal threshold (PWT) was determined using the up-down method of Dixon (Dixon, Ann. Rev. Pharma. & Toxico. 20:441-462, 1980) with von Frey filaments (Stoelting, Wood Dale, Ill., USA) as described previously (Chaplan et al., J. Neuros. Methods 53:55-63, 1994). Briefly, animals were allowed to acclimate for 30 min in a clear plastic cubicle with a wire-mesh base. A 2 g calibrated filament was first applied to the left hindpaw plantar surface with a pressure causing the filament to bend. If no paw lifting was detected after 5 s the next filament with increasing weight was used. If a paw lifting was observed, the next weaker filament was used. […] Neurosci. 21:1868-75, 2001). […] Rn014934317, Applied Biosystems), and is specific to the TSP 4 mRNA. Mismatch oligodeoxynucleotides, which contain the same number of nucleotides but in a random order (not complementary to any particular region of TSP4 mRNA), were used as controls. […] Genbank accession #: X89963) Oligodeoxynucleotides: These antisense and mismatch sequences were not complementary to any sequences of other rat genes as indicated by BLAST search results in rat genome database. It had been shown that oligodeoxynucleotides with phosphorothioate modification have increased potential for crossing lipid bilayers, and reduce nuclease cleavage (Crooke, et al., Ann. Rev. Pharmacology. & Toxicology, 1996).

For “TSP4: recombinant purified pentameric thrombospondin 4”, the “number of co-localized synaptic puncta/cell (synapse number)” value (RGCs [1]) was “significantly increased the number of co-localized synaptic puncta/cell; also recorded: increased synaptic puncta numbers to the same extent as either astrocytes or TSP1”, the “duration of behavioral hypersensitivity” value (naive rats; intrathecal bolus) was “over a week” and the “reversal time post the peak effect time” value (naive rats; intrathecal bolus) was “about five days”. For the same molecule, the “time of peak effect post injection” value (naive rats; intrathecal bolus) was 2 to 4 days and the “hindpaw withdrawal thresholds to von Frey filament stimulation” value (naive rats; intrathecal bolus injection of active protein into L5/6 spinal cord segments) was “caused a gradual reduction in their hindpaw withdrawal thresholds; also recorded: induced behavioral hypersensitivity in a dose-dependent and reversible manner”.

For `NCCCC(=O)O` [GABA, γ-aminobutyric acid], the “effect on SD2/TSP-induced synapse formation” value (RGCs [2]; 1 mM (high concentrations)) was “blocked TSP induced synapse formation; also recorded: inhibitory” and the “effect on synapse numbers induced by SD2” value (RGCs [2]; 10 and 100 μM) was “did not decrease the synapse numbers”.

For “TSP1: purified human platelet TSP1, trimeric thrombospondin”, the “number of co-localized synaptic puncta/cell (synapse number)” value (RGCs [1]) was “significantly increased the number of co-localized synaptic puncta/cell; also recorded: increased the number of synapses formed by RGCs significantly”.

With “5′ CCATCATTGTTGCTATCTTCC 3′ (DNA, backbone and methylation of C not given here; further chemistry not fully specified) [Antisense #2]” the “duration of antisense effects after the last injection” value (TSP4) was 3 days, the “onset time of antisense effects” value (TSP4) was 3 days and the “time of peak antisense effect” value (TSP4) was “one day after the 4-day treatment”. For the same molecule, the “reversal of established allodynia in the injury (ipsilateral) side” value (from here on “reversal of established allodynia”) (TSP4) was “caused a complete reversal of established allodynia” and the “reversal of established allodynia” value (TSP4; listed as TSP4 antisense oligonucleotide #2) was “caused a complete reversal of established allodynia in the injury side”.

With “5′ GGCGTAATCATGGTCATACG 3′ (DNA, backbone and methylation of C not given here; further chemistry not fully specified) [Antisense #1]” the “reversal of established allodynia” value (TSP4) was “had some effects in allodynia reversal”.

For “TSP3: mouse TSP3 overexpressed in Cos7 cells; conditioned media used as source”, the “number of co-localized synaptic puncta/cell” value (RGCs [1]; culture supernatant of Cos7 cells overexpressing TSP3, vs supernatant of empty-vector Cos7 cells) was “significantly increased the number of co-localized synaptic puncta/cell; also recorded: increased the number of synaptic puncta to the same extent as astrocytes”.

B1: Hevin: another astrocyte secreted synaptogenic protein (protein, UniProt Q14515 17-664, looked up)
SPARC-like protein 1: IPTNARLLSDHSKPTAETVAPDNTAIPSLRAEAEENEKETAVSTEDDSHHKAEKSSVLKSKEESHEQSAEQGKSSSQELGLKDQEDSDGHLSVNLEYAPTEGTLDIKEDMSEPQEKKLSENTDFLAPGVSSFTDSNQQESITKREENQEQPRNYSHHQLNRSSKHSQGLRDQGNQEQDPNISNGEEEEEKEPGEVGTHNDNQERKTELPREHANSKQEEDNTQSDDILEESDQPTQVSKMQEDEFDQGNQEQEDNSNAEMEEENASNVNKHIQETEWQSQEGKTGLEAISNHKETEEKTVSEALLMEPTDDGNTTPRNHGVDDDGDDDGDDGGTDGPRHSASDDYFIPSQAFLEAERAQSIAYHLKIEEQREKVHENENIGTTEPGEHQEAKKAENSSNEEETSSEGNMRVHAVDSCMSFQCKRGHICKADQQGKPHCVCQDPVTCPPTKPLDQVCGTDNQTYASSCHLFATKCRLEGTKKGHQLQLDYFGACKSIPTCTDFEVIQFPLRMRDWLKNILMQLYEANSEHAGYLNEKQRNKVKKIYLDEKRLLAGDHPIDLLLRDFKKNYHMYVYPVHWQFSELDQHPMDRVLTHSELAPLRASLVPMEHCITRFFEECDPNKDKHITLKEWGHCFGIKEEDIDENLLF
B1 was tested, and the “number of synapses formed” value (RGCs [1]; 3 DIV RGCs treated 9 days, TSP2 EGF-like domains 20 nM, Hevin 30 nM, vs RGCs alone) was “increased the number of synapses formed significantly”.
